The source of these data is patent publication US9499493B2, “2,4-pyrimidinediamine compounds and their uses” (Rigel Pharmaceuticals, Inc., priority 2002, dated 2016).

One test relates to cultured human mast cells (CHMC). Put plainly: CHMC low cell density IgE activation: tryptase assay. The class given is cell-based. Conditions: Homo sapiens, Mast cell, anti-IgE. Here is the method:
Pellet CHMC cells (980 rpm, 10 min) and resuspend in pre-warmed MT. Add 65 ul of cells to each 96-well plate. Depending on the degranulation activity for each particular CHMC donor, load 1000-1500 cells/well. Mix four times followed by a 1 hr incubation at 37° C. […] Stimulate cells by adding 25 ul of 6× anti-IgE solution to the appropriate plates. Add 25 ul MT to un-stimulated control wells. Mix twice following addition of the anti-IgE. Incubate at 37° C. for 30 minutes. […] Spin plates at 1000 rpm for 10 min to pellet cells. Transfer 25 ul of supernatant to a 96-well black bottom plate and add 100 ul of freshly diluted tryptase substrate solution to each well. Incubate plates at room temperature for 30 min.
For `O=C(O)Cc1cccc(Nc2ncc(F)c(Nc3cccc(CC(=O)O)c3)n2)c1` [R935117], the IC50 was over 10000 nM.

Still in this test, the particulars now being: anti-IgE.
`CNC(=O)COc1cccc(Nc2ncc(F)c(Nc3cccc(SC(F)(F)F)c3)n2)c1` [R926925, 5-Fluoro-N2-[3-[(N-methylamino)carbonylmethyleneoxy]phenyl]-N4-(3-trifluoromethylthiophenyl)-2,4-pyrimidinediamine] returned an IC50 of 307 nM.

In the case of `CCOC(=O)C1CCN(C(=O)c2cccc(Nc3nc(Nc4cccc(OCC(=O)NC)c4)ncc3F)c2)CC1` [R926941, N4-[3-[[4-(Ethoxycarbonyl)piperidino]carbonyl]phenyl]-5-fluoro-N2-[3-[(N-methylamino)carbonylmethyleneoxy]phenyl]-2,4-pyrimidinediamine], 4200 nM corresponded to half-maximal inhibition (IC50). Compared with the last compound, the IC50 is about 14-fold higher.

Consider `CC(C)(CO)c1ccc(Nc2ncc(F)c(Nc3cccc(O)c3)n2)cc1` [R935153, 5-Fluoro-N2-[4-(2-hydroxy-1,1-dimethylethyl)phenyl]-N4-(3-hydroxyphenyl)-2,4-pyrimidinediamine], for which the IC50 was 238 nM. Still for that read-out and setting: in the case of `CC(C)Oc1ccc(Nc2ncc(F)c(Nc3ccc4[nH]ncc4c3)n2)cc1` [R935266, 5-Fluoro-N4-(indazoline-5-yl)-N2-(4-isopropoxyphenyl)-2,4-pyrimidinediamine] it was 2970 nM; in that of `Fc1cnc(Nc2ccc3c(c2)OCCO3)nc1Nc1ccc2[nH]ncc2c1` [R935267, N2-(3,4-Ethyelenedioxyphenyl)-5-fluoro-N4-(indazoline-5-yl)-2,4-pyrimidinediamine], 2460 nM; in that of `Oc1cccc(Nc2ncc(F)c(Nc3ccc4[nH]ncc4c3)n2)c1` [R935268, 5-Fluoro-N2-(3-hydroxyphenyl)-N4-(indazoline-5-yl)-2,4-pyrimidinediamine], 1060 nM.

As to `COC(=O)COc1cccc(Nc2ncc(F)c(Nc3ccc4[nH]ncc4c3)n2)c1` [R935269, 5-Fluoro-N4-(indazoline-5-yl)-N2-[3-(methoxycarbonylmethyleneoxy)phenyl]-2,4-pyrimidinediamine], 1720 nM corresponded to half-maximal inhibition (IC50). As for `CC(C)Oc1ccc(Nc2nc(Nc3ccc4nn(C)cc4c3)ncc2F)cc1` [R935298, 5-Fluoro-N4-(4-isopropoxyphenyl)-N2-(2-methyl-indazoline-5-yl)-2,4-pyrimidinediamine], 252 nM corresponded to half-maximal inhibition (IC50). Still for that read-out and setting: in the case of `CCOC(=O)CCn1ncc2cc(Nc3ncc(F)c(Nc4ccc5c(c4)OCCO5)n3)ccc21` [R935301, N2-[1-(2-Ethoxycarbonylethyl)indazoline-5-yl]-N4-(3,4-ethylenedioxyphenyl)-5-fluoro-2,4-pyrimidinediamine] it was 4050 nM; in that of `CCOC(=O)CCn1ncc2cc(Nc3nc(Nc4cccc(O)c4)ncc3F)ccc21` [R935303, N4-[1-(2-Ethoxycarbonylethyl)indazoline-5-yl]-5-fluoro-N2-(3-hydroxyphenyl)-2,4-pyrimidinediamine], 244 nM. Compound `CCOC(=O)CCn1ncc2cc(Nc3nc(Nc4ccc(OC(C)C)cc4)ncc3F)ccc21` [R935306, N4-[1-(2-Ethoxycarbonylethyl)indazoline-5-yl]-5-fluoro-N2-(4-isopropoxyphenyl)-2,4-pyrimidinediamine] yielded a half-inhibitory concentration (IC50) of 345 nM.

In turn, `CC(C)Oc1ccc(Nc2nc(Nc3ccc4c(cnn4CCCO)c3)ncc2F)cc1` [R935307, 5-Fluoro-N2-[1-(3-hydroxypropyl)indazoline-5-yl]-N4-(4-isopropoxyphenyl)-2,4-pyrimidinediamine] had an IC50 of 139 nM. Same read-out and setting: in the case of `COC(=O)c1ccc(Cn2ncc3ccc(Nc4ncc(F)c(Nc5ccc6c(c5)OCCO6)n4)cc32)c(OC)c1` [R935320, N4-(3,4-Ethylenedioxyphenyl)-5-fluoro-N2-[1-(2-methoxy-4-carbomethoxybenzyl)indazoline-6-yl]-2,4-pyrimidinediamine] it was 2770 nM; in that of `COC(=O)c1ccc(Cn2ncc3ccc(Nc4ncc(F)c(Nc5cccc(O)c5)n4)cc32)c(OC)c1` [R935321, 5-Fluoro-N4-(3-hydroxyphenyl)-N2-[1-(2-methoxy-4-carbomethoxybenzyl)indazoline-6-yl]-2,4-pyrimidinediamine], 2990 nM.

For `COc1cc(C(=O)NS(=O)(=O)c2ccccc2C)ccc1Cn1ncc2ccc(Nc3ncc(F)c(Nc4ccc(OC(C)C)cc4)n3)cc21` [R935322, 5-Fluoro-N4-(4-isopropoxyphenyl)-N2-[1-[2-methoxy-4-(o-toluylsulfonamidocarboxy)benzyl]indazoline-6-yl]-2,4-pyrimidinediamine], 3420 nM corresponded to half-maximal inhibition (IC50). This IC50 and that of the compound before are within 1.5-fold of each other. `COc1cc(C(=O)NS(=O)(=O)c2ccccc2C)ccc1Cn1ncc2ccc(Nc3ncc(F)c(Nc4ccc5c(c4)OCCO5)n3)cc21` [R935323, N4-(3,4-Ethylenedioxyphenyl)-5-fluoro-N4-[1-[2-methoxy-4-(o-toluylsulfonamidocarboxy)benzyl]indazoline-6-yl]-2,4-pyrimidinediamine]: the IC50 is over 10000 nM.

`COc1cc(C(=O)NS(=O)(=O)c2ccccc2C)ccc1Cn1ncc2ccc(Nc3ncc(F)c(Nc4cccc(O)c4)n3)cc21` [R935324, 5-Fluoro-N4-(3-hydroxyphenyl)-N2-[1-[2-methoxy-4-(o-toluylsulfonamidocarboxy)benzyl]indazoline-6-yl]-2,4-pyrimidinediamine]: the IC50 was over 10000 nM. Same read-out and setting: in the case of `COC(=O)c1ccc(Cn2cc3ccc(Nc4ncc(F)c(Nc5cccc(O)c5)n4)cc3n2)c(OC)c1` [R935337, 5-Fluoro-N4-(3-hydroxyphenyl)-N2-[2-(2-methoxy-4-carbomethoxybenzyl)indazoline-6-yl]-2,4-pyrimidinediamine] it was over 10000 nM. The same measure, in the same setting: in the case of `COc1cc(C(=O)NS(=O)(=O)c2ccccc2C)ccc1Cn1ncc2cc(Nc3ncc(F)c(Nc4ccc5c(c4)OCCO5)n3)ccc21` [R935339, N4-(3,4-Ethylenedioxyphenyl)-5-fluoro-N2-[1-[2-methoxy-4-(o-toluylsulfonamidocarboxy)benzyl]indazoline-5-yl]-2,4-pyrimidinediamine] it was over 10000 nM. As for `COc1cc(C(=O)NS(=O)(=O)c2ccccc2C)ccc1Cn1ncc2cc(Nc3ncc(F)c(Nc4cccc(O)c4)n3)ccc21` [R935340, 5-Fluoro-N4-(3-hydroxyphenyl)-N2-[1-[2-methoxy-4-(o-toluylsulfonamidocarboxy)benzyl]indazoline-5-yl]-2,4-pyrimidinediamine], the IC50 stood at 3610 nM. This counts as single-digit micromolar. Still for that read-out and setting: in the case of `COc1ccc(Nc2nc(Nc3ccc4c(cnn4C)c3)ncc2F)c(OC)n1` [R935380, N4-(2,6-Dimethoxy-3-pyridyl)-5-fluoro-N2-[1-methylindazoline-5-yl]-2,4-pyrimidinediamine] it was 1610 nM; in that of `CNC(=O)COc1cccc(Nc2ncc(F)c(Nc3ccc(OC)c(C(=O)NC(C)C)c3)n2)c1` [R940312, 5-Fluoro-N2-[3-(methylaminocarbonylmethyleneoxy)phenyl]-N4-(3-iso-propylaminocarbonyl-4-methoxyphenyl)-2,4-pyrimidinediamine], 2560 nM; in that of `CNC(=O)COc1cccc(Nc2ncc(F)c(Nc3ccc(OC)c(CN4CCOCC4)c3)n2)c1` [R940314, 5-Fluoro-N2-[3-(methylaminocarbonylmethyleneoxy)phenyl]-N4-[3-(N-morpholinomethylene)-4-methoxyphenyl]-2,4-pyrimidinediamine], 4200 nM. Still for that read-out and setting: in the case of `COc1ccc(Nc2nc(Nc3cc(C)c(O)c(Cl)c3)ncc2F)cc1CN1CCOCC1` [R940316, N2-(3-Chloro-4-hydroxy-5-methylphenyl)-5-fluoro-N4-[3-(N-morpholinomethylene)-4-methoxyphenyl]-2,4-pyrimidinediamine] it was 1860 nM. With `COc1ccc(Nc2nc(Nc3cc(C)c(O)c(Cl)c3)ncc2F)cc1CN1CCNCC1` [R940318, N2-(3-Chloro-4-hydroxy-5-methylphenyl)-5-fluoro-N4-[3-(N-piperazinomethylene)-4-methoxyphenyl]-2,4-pyrimidinediamine], the IC50 was found to be 3790 nM. Still for that read-out and setting: in the case of `CNC(=O)COc1cccc(Nc2ncc(F)c(Nc3ccc(OC)c(CN(C(=O)OC(C)(C)C)C(C)C)c3)n2)c1` [R940319, N4-(3-(N-tert-Butoxycarbonyl-N-iso-propylaminomethylene)-4-methoxyphenyl)-5-fluoro-N2-[3-(methylaminocarbonylmethyleneoxy)phenyl]-2,4-pyrimidinediamine] it was over 10000 nM; in that of `CNC(=O)COc1cccc(Nc2ncc(F)c(Nc3ccc(OC)c(CN(C)C)c3)n2)c1` [R940321, N4-(3-N,N-Dimethylaminomethylene-4-methoxyphenyl)-5-fluoro-N2-[3-(methylaminocarbonylmethyleneoxy)phenyl]-2,4-pyrimidinediamine], over 10000 nM; in that of `CNC(=O)COc1cccc(Nc2ncc(F)c(Nc3ccc4c(c3)N(c3ccccn3)CC(C)(C)O4)n2)c1` [R940337, N4-[3-Dihydro-2,2-dimethyl-4-(2-pyridyl)-benzo[1,4]oxazin-6-yl]-5-fluoro-N2-[3-(methylaminocarbonylmethyleneoxy)phenyl]-2,4-pyrimidinediamine], 1100 nM.

`CNC(=O)COc1cccc(Nc2ncc(F)c(Nc3cnc4c(c3)OC(C)(C)C(=O)N4)n2)c1` [R940345, N4-[(2,2-Dimethyl-4H-5-pyrido[1,4]oxazin-3-one)-7-yl]-5-fluoro-N2-[3-(methylaminocarbonylmethyleneoxy)phenyl]-2,4-pyrimidinediamine] displayed an IC50 of 1710 nM. In turn, `CC1(C)Oc2ccc(Nc3nc(Nc4cccc(O)c4)ncc3F)cc2NC1=O` [R940346, N4-[(2,2-Dimethyl-4H-benzo[1,4]oxazin-3-one)-6-yl]-5-fluoro-N2-(3-hydroxyphenyl)-2,4-pyrimidinediamine] yielded an IC50 of 142 nM.

The compound `CC1(C)CN(c2ccccn2)c2cc(Nc3nc(Nc4cccc(O)c4)ncc3F)ccc2O1` [R940348, N4-[3-Dihydro-2,2-dimethyl-4-(2-pyridyl)-benzo[1,4]oxazin-6-yl]-5-fluoro-N2-(3-hydroxyphenyl)-2,4-pyrimidinediamine] had an IC50 of 2190 nM.

The term IC50 denotes the midpoint of a concentration-inhibition curve. Read a high IC50 as a need for much substance.
